Consider six compounds from patent publication US20250281388A1, “COMPOSITIONS COMPRISING BREVIBACILLA MULTIFUNCTIONAL FERMENTATES AND METHODS OF USE” (Nutrition & Biosciences USA 4, Inc., priority 2022, published 2025).

The nature of data set [1]: Activated ABTS antioxidant assay (absorbance at 405 nm, Trolox calibration). It counts as biochemical. The method, then:
The Brevibacillus laterosporus fermentate was prepared as described in Example 2, using TSB media (1.7% Tryptone, 0.3% Soytone, 0.25% Glucose, 0.5% sodium chloride, 0.25% Potassium phosphate Dibasic) as the growing solution. The fermentate supernatant was first let flow through an Amicon® Ultra Centrifugal Filters with a size cutoff of 30 kDa. The permeate (which was essentially free of cells) was kept and then let flow through another Amicon® Ultra Centrifugal Filters with a size cutoff of 3 kDa. The retentate was concentrated by 10-fold in volume and stored as the final product (i.e., size is greater than 3 kDa and less than 30 kDa), referring as the concentrated fermentate in the subsequent experiments. The 10-fold concentrated fermentate was dosed separately at 2 weight percent into the serum (Table 2) and hydrogel (Table 3) formulations with xanthan gum.
The water-soluble analogue of α-Tocopherol, Trolox, is often used as a reference for characterization the antioxidant properties of a new ingredient in the assay (Reference: “Huang, S. W., Hopia, A., Schwarz, K., Frankel, E. N., & German, J. B. (1996). Antioxidant activity of α-tocopherol and trolox in different lipid substrates: bulk oils vs oil-in-water emulsions. Journal of Agricultural and Food Chemistry, 44 (2), 444-452.”).
A series of Trolox with different concentrations were used as the calibration curve for quantifying the antioxidant properties.
Table 5 summarizes the measured absorbance and the corresponding trolox equivalent (calculated from the Trolox calibration curve) of the fermentate and fermentate-dosed formulations.

The nature of data set [2]: Foam enhancing test (foam height in 50-ml conical tube). In kind it is physicochemical. The arrangement: key: tube marking minus 10 (mL scale); 0 = no foam, 40 = maximum. The method, then: Foam enhancing capabilities of the Brevibacillus laterosporus A8.11 fermentate supernatant (cell free supernatant) were evaluated in the presence of different categories of surfactants and detergents commonly found in home and personal care cleaning formulations. To evaluate this, a solution of 1% zwitterionic detergent (CHAPS hydrate), 1% solution of the glycolipid biosurfactant type 1 (acidic sophorolipids non-acetylated), a 0.1% solution of glycolipid biosurfactant type 2 (lactonic (di-acetylated) sophorolipids), and 0.1% of the anionic/non-ionic detergent were each prepared with 10% cell free supernatant in a 50-ml conical tube with deionized water for a final volume of 10-mL. Control samples were prepared individually as 1% zwitterionic detergent, 1% solution of the glycolipid biosurfactant type 1, a 0.1% solution of glycolipid biosurfactant type 2, 0.1% of the anionic/non-ionic detergent and 10% cell free supernatant only in a 50-ml conical tube with deionized water for a final volume of 10-mL. All samples were shaken for 30 seconds by hand and left at room temperature to observe foam height. Foam height was measured by the marking on a 50-ml conical tube and subtracted by 10, where a value of 40 is the maximum foam height and a value of 0 indicates no foam.

Data set [3] deals with Pseudomonas aeruginosa (ATCC #15442). Put plainly: Polylysine control of Pseudomonas aeruginosa with or without Acumer 4200 (visual turbidity). It counts as cell-based. To be noted: 37 C overnight. On the procedure:
The ability of Polylysine, a known cationic peptide-based food preservative, to suppress the growth of Pseudomonas aeruginosa in the presence and absence of the anionic polymer Acumer 4200 was also evaluated. The test was conducted in scintillation vials inoculated with a 1:100 dilution from an overnight of Pseudomonas aeruginosa (ATCC #15442) allowed to incubate at 37 C overnight. The readout was visual with turbidity as an indicator of Pseudomonas growth.

A short description of data set [4]: Foam stabilizing test (foam height in 50-ml conical tube). It counts as physicochemical. The arrangement: unit not given beside the values. On the procedure:
Foam stabilizing capabilities of the Brevibacillus laterosporus A8.11 fermentate supernatant (cell free supernatant) were evaluated in the presence of different categories of surfactants and detergents commonly found in home and personal care cleaning formulations. To evaluate this, a solution of a 1% non-ionic detergent (Tergitol 15-S-7) and a 1% solution of anionic surfactant (Sodium lauroyl sarcosinate) were each prepared with 10% cell free supernatant in a 50-ml conical tube with deionized water for a final volume of 10-mL. Control samples were prepared individually as 1% non-ionic detergent only, 1% anionic surfactant only and 10% cell free supernatant only in 50-ml conical tubes with deionized water for a final volume of 10-mL. All samples were shaken for 30 seconds by hand and left at room temperature to observe foam height. Foam height was measured by the marking on a 50-ml conical tube and subtracted by 10, where a value of 40 is the maximum foam height and a value of 0 indicates no foam. Foam stabilization was defined as the ability to maintain the starting foam height over multiple timepoints.

The mark [5] stands for this setting: Time 0, 10-mL in deionized water, shaken 30 seconds, 40 = maximum.

Entries after “also recorded” stand apart in the source; their conditions may differ.

Take `Cc1c(C)c2c(c(C)c1O)CCC(C)(C(=O)O)O2` (stereo not drawn) [Trolox]: the Measured absorbance in data set [1] (Trolox 4.7 μM) was 1.16; in data set [1] (Trolox 9.4 μM), 1.13; in data set [1] (Trolox 18.75 μM), 1.09; in data set [1] (Trolox 37.5 μM), 0.97; in data set [1] (Trolox 75 μM), 0.77; in data set [1] (Trolox 150 μM), 0.38.

In the case of `C[C@H](CCC(=O)NCCC[N+](C)(C)CCCS(=O)(=O)[O-])[C@H]1CC[C@H]2[C@@H]3[C@H](O)C[C@@H]4C[C@H](O)CC[C@]4(C)[C@H]3C[C@H](O)[C@]12C.O` [Zwitterionic Detergent, CHAPS hydrate], the “Foam Height” value in data set [2] (setting [5]) amounted to 15; in data set [2] (Time 1 min), 2.5; in data set [2] (Time 5 min) it was 0; in data set [2] (Time 15 min), 0; in data set [2] (Time 30 min) it was 0; in data set [2] (Time 3 hours), 0. Moreover, the “Foam Height” value in data set [2] (Time 24 hours) was determined as 0.

With Polylysine, the “Visual Inspection” value is listed as “does not function as an antimicrobial; also recorded: Turbid” in data set [3] (TSB growth medium with Acumer 4200 and polylysine); “able to suppress microbial growth; also recorded: Clear (polylysine prevented growth)” in data set [3] (TSB growth medium with the substance alone).

Turning to Tergitol 15-S-7 [Non-ionic Detergent], the “Foam Height” value is 37.5 in data set [4] (setting [5]); 37.5 in data set [4] (Time 1 min); 36 in data set [4] (Time 5 min); 22.5 in data set [4] (Time 15 min); 20 in data set [4] (Time 30 min); 14 in data set [4] (Time 3 hours). In data set [4] (Time 24 hours), the “Foam Height” value is given as 2.

With “acidic sophorolipids non-acetylated [Glycolipid Biosurfactant Type-1]”, the “Foam Height” value in data set [2] (setting [5]) was 2.5; in data set [2] (Time 1 min), 1; in data set [2] (Time 5 min), 1; in data set [2] (Time 15 min) it was 1; in data set [2] (Time 30 min) it was 1; in data set [2] (Time 3 hours), 0. Moreover, the “Foam Height” value in data set [2] (Time 24 hours) is recorded as 0.

Consider “lactonic (di-acetylated) sophorolipids [Glycolipid Biosurfactant Type-2]”, for which the “Foam Height” value is given as 2.5 in data set [2] (setting [5]); 2.5 in data set [2] (Time 1 min); 2 in data set [2] (Time 5 min); 1 in data set [2] (Time 15 min); 1 in data set [2] (Time 30 min); 0 in data set [2] (Time 3 hours). Also, the “Foam Height” value in data set [2] (Time 24 hours) turned out to be 0.
